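Results reflect a 48-hour exposure of cells in 96-well plates to compound at five concentrations. GI50 = concentration required for 50% inhibition of growth. TGI: total growth inhibition.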
Columns and labels:
Assay in all cases: NCI-60 cell line screen, 48 h
[1] = tested on: LXFL 529 NSCLC
[2] = tested on: XF 498 CNS
[3] = tested on: DMS 114 small cell lung
[4] = tested on: M19-MEL melanoma
[5] = tested on: KM20L2 colon
[6] = tested on: SNB-78 CNS

For `NC1CCCCC1.[O]=[Ge].[O]=[Ge].[O]=[Ge][OH].[O]=[Ge][OH]`, the GI50 [1] was greater than 100 µM, the TGI [1] was greater than 100 µM and the GI50 [2] was greater than 100 µM. The TGI [2] was greater than 100 µM, the TGI [3] was greater than 100 µM and the TGI [4] was greater than 100 µM. The TGI [5] was greater than 100 µM and the TGI [6] was greater than 100 µM.
